Results from US8324173B2, “Peptides useful as dual caspase-2/-6 inhibitors and their biological applications” (Chiesi Farmaceutici S.p.A., priority 2004, dated 2012).
Peptide text beside a SMILES is read from it.

Assays:
Format in all cases: biochemical
other caspases = assay: In vitro cleavage assay on panel of human recombinant caspases (cross-reaction); settings: at high doses
Protocol: Newly designed inhibitors (Ac-LDEAD(SEQ ID NO:7)-CHO, Ac-VDEAD(SEQ ID NO:1)-CHO) . . . ) were tested against a large panel of caspase (1 to 10) during in vitro cleavage assay according to the following protocol. Human recombinant caspases (25-50 U; Biomol) were pre-incubated 30 min with inhibitors (0.005-2 μM) in final 100 μl final assay buffer (50 mM HEPES, pH 7.4, 100 mM NaCl, 0.1% CHAPS, 10 mM DTT, 1 mM EDTA, 10% glycerol) and then mixed with 200 μM of their specific fluorogenic caspase substrates (BIOMOL) (Ac-YVAD(SEQ ID NO:23)-AMC (caspase-1), Ac-VDVAD(SEQ ID NO:9)-AMC (caspase-2), Ac-DEVD(SEQ ID NO:24)-AMC (caspase-3/-7), Ac-VEID(SEQ ID NO:25)-AMC (caspase-6), Ac-IETD(SEQ ID NO:26)-AMC (caspase-81-10)1Ac-LEHD(SEQ ID NO:27)-AMC (caspase-9). The cleavage of AMC-based substrates by human recombinant caspases 1-10 was measured after 2 h at 37° C. on a fluorescence microplate reader by monitoring emission at 510 nm upon excitation at 405 nm.

[1] = target: T1, human recombinant caspase-2 (Homo sapiens, UniProt P42575); assay: In vitro caspase-2 cleavage assay (Ac-VDVAD-AMC substrate); set-up: key to Group (pattern of caspase-2 inhibition curve): group 1 referred to inhibitors that were relatively more active than VDVAD(SEQ ID NO:9)-based inhibitors against caspase-2 at lower doses, but with similar IC50 values; group 2 referred to VDVAD(SEQ ID NO:9)-based inhibitor with characteristic sigmoid dose-response; group 3 referred to pentapetidic-based inhibitors that were less active than VDVAD(SEQ ID NO:9)-based inhibitors against caspase-2 at lower doses and that exhibited higher IC50; settings: for Group (pattern of caspase-2 inhibition curve) / IC50: Table 4; for IC50: 30 min pre-incubation, 2 h at 37° C.
T1 construct: purchased BIOMOL
T1 sequence (P42575 170-333 limits assumed): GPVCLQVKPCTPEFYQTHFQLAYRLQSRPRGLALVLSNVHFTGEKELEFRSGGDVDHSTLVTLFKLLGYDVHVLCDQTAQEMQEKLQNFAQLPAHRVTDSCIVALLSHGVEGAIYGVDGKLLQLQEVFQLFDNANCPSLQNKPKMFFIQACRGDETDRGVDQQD
T1 sequence (P42575 348-452 limits assumed): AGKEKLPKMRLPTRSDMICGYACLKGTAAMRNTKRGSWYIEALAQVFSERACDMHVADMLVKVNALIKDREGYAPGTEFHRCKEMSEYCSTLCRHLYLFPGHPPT
Protocol: Newly designed inhibitors (Ac-LDEAD(SEQ ID NO:7)-CHO, Ac-VDEAD(SEQ ID NO:1)-CHO . . . ) were compared to Ac-VDVAD(SEQ ID NO:9)-CHO in in vitro caspase-2 cleavage assay according to the following protocol (FIG. 8). Human recombinant caspases (25-50 U; QuantiZyme™ Assay System, BIOMOL, Plymouth, Pa., USA) were pre-incubated 30 min with inhibitors (0.005-2 μM) in final 100 μl final assay buffer (50 mM HEPES, pH 7.4, 100 mM NaCl, 0.1% CHAPS, 10 mM DTT, 1 mM EDTA, 10% glycerol) and then mixed with 200 μM of the fluorogenic caspase substrates (BIOMOL) Ac-VDVAD(SEQ ID NO:9)-AMC. An IC50 value corresponding to the concentration that could inhibit 50% of caspase activity was determined from the dose-response sigmoid curve. The cleavage of AMC-based substrates by human recombinant caspases 1-10 was measured after 2 h at 37° C. on a fluorescence microplate reader by monitoring emission at 510 nm upon excitation at 405 nm.

[2] = target: T2, rat recombinant calpain II (Rattus norvegicus, UniProt Q07009); assay: Calpain II inhibition assay; settings: 2 μM
T2 construct: purchased Biomol
T2 sequence (Q07009 1-700): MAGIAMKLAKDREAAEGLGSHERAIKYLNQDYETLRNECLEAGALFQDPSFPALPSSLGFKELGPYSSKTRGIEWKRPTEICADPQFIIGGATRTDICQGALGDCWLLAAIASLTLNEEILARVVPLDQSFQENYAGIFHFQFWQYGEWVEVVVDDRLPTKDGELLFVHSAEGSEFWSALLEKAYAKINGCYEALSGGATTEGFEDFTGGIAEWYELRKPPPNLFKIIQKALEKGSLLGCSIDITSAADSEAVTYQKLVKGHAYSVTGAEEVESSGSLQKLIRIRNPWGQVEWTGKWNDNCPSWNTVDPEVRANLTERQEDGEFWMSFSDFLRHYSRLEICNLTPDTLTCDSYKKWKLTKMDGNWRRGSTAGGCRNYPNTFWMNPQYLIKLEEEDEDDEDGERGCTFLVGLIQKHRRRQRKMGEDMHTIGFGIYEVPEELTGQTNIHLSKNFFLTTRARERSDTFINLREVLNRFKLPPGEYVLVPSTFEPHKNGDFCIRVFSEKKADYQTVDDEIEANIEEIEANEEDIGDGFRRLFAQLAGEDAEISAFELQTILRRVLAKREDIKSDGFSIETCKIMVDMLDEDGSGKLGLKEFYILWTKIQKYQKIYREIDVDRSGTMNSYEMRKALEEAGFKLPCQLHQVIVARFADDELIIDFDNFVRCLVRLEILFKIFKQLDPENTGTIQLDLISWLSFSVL
T2 sequence (Q64537 87-270 partner limits assumed): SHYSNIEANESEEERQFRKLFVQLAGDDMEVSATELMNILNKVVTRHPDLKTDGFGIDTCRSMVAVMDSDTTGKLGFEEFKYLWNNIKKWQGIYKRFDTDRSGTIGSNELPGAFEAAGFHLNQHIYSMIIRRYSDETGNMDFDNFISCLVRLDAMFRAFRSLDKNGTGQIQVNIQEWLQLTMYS
Protocol: (§1) Additionally, specificity of newly designed inhibitors was checked against calpains and Granzyme B. Human recombinant calpain I (0.8 U) and rat recombinant calpain II (20 U) (both from Biomol) were pre-incubated 30 min with inhibitors in final 100 μl final assay buffer (50 mM HEPES, pH 7.4, 100 mM NaCl, 0.1% CHAPS, 5 mM CaCl2, 1 mM EDTA, 10% glycerol, 2 mM β-mercaptoethanol) and then mixed with 20 μM of the fluorogenic calpain substrates I or II (Calbiochem), respectively. ALLN and ALLM (1 μM) were internal controls for inhibition. The cleavage of substrates by recombinant enzymes was measured after 2 h at 37° C. on a fluorescence microplate reader by monitoring emission at 460 nm upon excitation at 380 nm for calpain I or emmission at 530 nm upon excitation at 485 nm for calpain II. Human granzyme B (50 U; Biomol) was pre-incubated 10 min with inhibitors in final 100 μl final granzyme assay buffer (Biomol) and then mixed with 400 μM of Ac-IEPD-pNA (Biomol). 3,4 DCIC (1 μM) was used as positive control for inhibition. The cleavage of substrate was measured after 1 h at 37° C. on a spectrophotometer at […]. Ac-IEPD-pNA is DEQ ID NO:29.

[3] = target: T3, Human recombinant calpain I (Homo sapiens, UniProt P07384); assay: Calpain I inhibition assay; settings: 2 μM
T3 construct: purchased Biomol
T3 sequence (P07384 1-714): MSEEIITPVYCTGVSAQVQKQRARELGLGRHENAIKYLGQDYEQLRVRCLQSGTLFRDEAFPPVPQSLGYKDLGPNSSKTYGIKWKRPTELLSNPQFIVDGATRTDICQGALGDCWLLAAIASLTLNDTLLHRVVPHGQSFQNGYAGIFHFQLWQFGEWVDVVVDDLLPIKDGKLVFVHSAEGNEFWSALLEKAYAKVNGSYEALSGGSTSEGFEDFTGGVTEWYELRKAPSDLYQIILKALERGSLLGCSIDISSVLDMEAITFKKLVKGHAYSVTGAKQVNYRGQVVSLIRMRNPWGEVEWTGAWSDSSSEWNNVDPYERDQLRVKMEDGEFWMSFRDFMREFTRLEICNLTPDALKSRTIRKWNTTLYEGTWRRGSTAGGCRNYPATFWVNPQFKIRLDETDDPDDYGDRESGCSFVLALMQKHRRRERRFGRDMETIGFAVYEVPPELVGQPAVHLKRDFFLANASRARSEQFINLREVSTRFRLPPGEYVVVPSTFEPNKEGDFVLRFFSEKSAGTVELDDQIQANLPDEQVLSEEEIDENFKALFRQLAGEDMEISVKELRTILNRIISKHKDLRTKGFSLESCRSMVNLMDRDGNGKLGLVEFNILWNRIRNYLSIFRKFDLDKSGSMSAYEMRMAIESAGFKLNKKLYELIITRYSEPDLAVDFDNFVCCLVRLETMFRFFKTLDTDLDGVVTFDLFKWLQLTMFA
T3 sequence (P04632 1-268 partner): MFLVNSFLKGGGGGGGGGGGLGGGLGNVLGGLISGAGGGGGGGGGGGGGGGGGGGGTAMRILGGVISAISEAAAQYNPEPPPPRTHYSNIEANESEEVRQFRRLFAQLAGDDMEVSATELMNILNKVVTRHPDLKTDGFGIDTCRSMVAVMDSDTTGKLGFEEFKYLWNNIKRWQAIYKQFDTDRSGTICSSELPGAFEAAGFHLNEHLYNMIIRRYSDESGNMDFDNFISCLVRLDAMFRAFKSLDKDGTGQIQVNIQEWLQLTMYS
Protocol: as §1

Human granzyme B = target: T4, Human granzyme B (Homo sapiens, UniProt P10144); assay: Granzyme B inhibition assay (Ac-IEPD-pNA); settings: 2 μM
T4 construct: purchased Biomol
T4 sequence (P10144 21-247): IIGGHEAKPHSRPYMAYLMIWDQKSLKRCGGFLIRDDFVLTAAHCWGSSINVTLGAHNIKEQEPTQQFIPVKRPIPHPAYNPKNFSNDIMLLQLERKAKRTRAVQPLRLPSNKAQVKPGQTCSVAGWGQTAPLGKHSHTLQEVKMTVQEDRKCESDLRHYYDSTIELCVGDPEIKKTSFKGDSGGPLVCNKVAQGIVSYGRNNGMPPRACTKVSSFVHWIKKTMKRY
Protocol: as §1

Row | Group (pattern of caspase-2 inhibition curve) [1] | VDVAD-AMC cleavage by caspase-2 ([1]; recombinant caspase-2, FIG. 16) | inhibition of calpain II [2] | inhibition of calpain I [3] | inhibition of granzyme B (Human granzyme B) | IC50 [1] | SMILES | inhibition of other caspases (cross-reaction) (other caspases)
1 | 2 | blocked | – | – | – | – | CC(=O)N[C@H](C(=O)N[C@@H](CC(=O)O)C(=O)N[C@H](C(=O)N[C@@H](C)C(=O)N[C@H](C=O)CC(=O)O)C(C)C)C(C)C [Compound 8, Ac-VDVAD-cho, reference compound] (Ac-VDVAD-aldehyde) | less than 20%
2 | 1 | – | not strong inhibitors | not strong inhibitors | not strong inhibitors | 0.085 ± 0.006 µM | CC(=O)N[C@@H](CC(C)C)C(=O)N[C@@H](CC(=O)O)C(=O)N[C@@H](CCC(=O)O)C(=O)N[C@@H](C)C(=O)N[C@H](C=O)CC(=O)O [Compound 14, Ac-LDEAD(SEQ ID NO:7)-cho] (Ac-LDEAD-aldehyde) | –
3 | 1 | – | not strong inhibitors | not strong inhibitors | not strong inhibitors | 0.085 ± 0.005 µM | CC(=O)N[C@H](C(=O)N[C@@H](CC(=O)O)C(=O)N[C@@H](CCC(=O)O)C(=O)N[C@@H](C)C(=O)N[C@H](C=O)CC(=O)O)C(C)C [Compound 20, Ac-VDEAD(SEQ ID NO:1)-cho] (Ac-VDEAD-aldehyde) | –
